Tests used:
photodamaged skin [1] = assay: Stratum corneum thickness of periorbital punch biopsies, clinical study; format: in vivo, human
Experimental: (§1) A clinical study was conducted to examined the combined use of retinoic acid therapy with myristyl nicotinate (MN), a lipophilic derivative of niacin that enhances skin barrier function, in subjects with mild to moderate facial photodamage.
All subjects selected for the study were female, between the ages of 30 and 60, with a score of I to IV on the Fitzpatrick Skin Classification, mild to moderate photodamaged skin as defined by a modified Glogau Classification of I to II, and with presence of dyschromia on the face as determined by a woods light visual scan.
The subjects were randomly assigned to one of three groups of 20 subjects each. One month prior to the initiation of retinoic acid therapy, one of the groups (group 3) began to apply to the entire face, both night and morning, a formulation containing 5% myristyl nicotinate. Groups 1 and 2 applied, in the same manner, a placebo formulation in which myristyl myristate replaced myristyl nicotinate. […]
Accordingly, periorbital biopsy samples obtained from study subjects were evaluated for stratum corneum thickness. A board certified dermatologist collected a 2-mm punch biopsy from the right or left side of the face as determined by a randomization design of 7 randomly selected subjects from each group at baseline and after 12 weeks of treatment. […]
Histological images were taken of the H&E stained cross sections with an Olympus inverted stage microscope using a 10× by 0.45 Apochromat objective and a Nikon digital CCD camera. […] Suprapapillary epidermal thickness (as measured from the top of the dermal papilla to the top of the granular layer) and stratum corneum thickness (as measured from the top of the granular layer to the top of the stratum corneum) were measured. For each specimen, five different sites were measured and the average was calculated.

caspase 14 = assay: Caspase 14 expression in study subjects; format: in vivo, human
Excerpt: (§2) To investigate this, the levels of expression of both caspase 14 and filaggrin were investigated in the groups of subjects referred to supra, (i.e., subjects who received placebo alone for one month, then placebo plus retinoic acid, and those who received placebo only for one month and then myristyl nicotinate and retinoic acid during the treatment phase.

photodamaged skin [2] = conditions: 5% myristyl nicotinate for 3 months, previous studies; cited from earlier work
photodamaged skin [3] = assay: Clinical grading of efficacy (dyschromia, fine lines, wrinkles, tactile roughness, temple laxity); format: in vivo, human; conditions: for grading of temple laxity vs placebo/placebo+RA: 12 weeks
Experimental: as §1
(§3) The subjects were randomly assigned to one of three groups of 20 subjects each. One month prior to the initiation of retinoic acid therapy, one of the groups (group 3) began to apply to the entire face, both night and morning, a formulation containing 5% myristyl nicotinate. Groups 1 and 2 applied, in the same manner, a placebo formulation in which myristyl myristate replaced myristyl nicotinate. Upon initiation of retinoic acid therapy (baseline), group 1 (placebo/placebo+RA) continued to use the placebo formulation as above, group 2 (placebo/MN+RA) initiated use of the 5% myristyl nicotinate formulation and group 3 (MN/MN+RA) continued to use the 5% myristyl nicotinate formulation. Retinoic acid therapy involved a 0.025% concentration of the drug applied at night, immediately following application of the placebo or myristyl nicotinate containing formulations. This strength of retinoic acid was chosen for this study as the subjects had mild to moderate photodamage.
(§4) In order to assess both the tolerability and efficacy of retinoic acid therapy, subjects also were clinically graded on the right and/or left side of the face for efficacy/performance parameters and irritation/safety parameters at baseline, and weeks 2, 4, 8, and 12.
Clinical grading involved evaluation of dyschromia, fine lines, shallow wrinkles, tactile roughness, and temple laxity as a function of treatment time (at weeks 2, 4, 8, and 12).

photodamaged skin [4] = assay: Rates of transepidermal water loss (TEWL), right cheek, Dermalab; format: in vivo, human; conditions: for change from baseline in mean rates of TEWL: 12 weeks
Experimental: as §1, §3
Determination of rates of TEWL provides a non-invasive assessment of relative skin barrier function. […] For the TEWL measurements, the instruments required a specified temperature and humidity range for optimal function, thus subjects were required to equilibrate to ambient conditions for at least 20 min prior to measurements. Temperature was maintained between 66 and 72° F. and relative humidity maintained between 15 and 55%. A computer-linked Dermalab instrument was used to measure TEWL at two points above the skin surface on the right cheeks of study subjects and the rate of water loss was calculated. Each TEWL measurement was averaged over a one-min measurement period.

filaggrin = assay: Filaggrin expression in study subjects; format: in vivo, human
Excerpt: as §2

photodamaged skin [5] = assay: Clinical grading of tolerability (irritation/safety parameters); format: in vivo, human
Experimental: as §1, §3, §4
The most severe parameters of tolerability such as scaling/peeling and degree of erythema were graded on 3-point clinical scale at weeks 2, 4, 8, and 12, and mean values were determined. The frequency of less severe parameters of tolerability typical of retinoic acid therapy (including tightness/dryness, stinging, burning, and tingling) was also evaluated.

photodamaged skin [6] = assay: Suprapapillary epidermal thickness of periorbital punch biopsies; format: in vivo, human; conditions: for increase in epidermal thickness: 12 weeks
Experimental: as §1, §3
Accordingly, periorbital biopsy samples obtained from study subjects were evaluated for stratum corneum thickness. A board certified dermatologist collected a 2-mm punch biopsy from the right or left side of the face as determined by a randomization design of 7 randomly selected subjects from each group at baseline and after 12 weeks of treatment. The punch biopsies were formalin-fixed, embedded in paraffin, cut into 5 μm cross-sections, mounted on slides, and stained with hematoxylin-eosin (H&E).
Histological images were taken of the H&E stained cross sections with an Olympus inverted stage microscope using a 10× by 0.45 Apochromat objective and a Nikon digital CCD camera. ImageJ image analysis software (NIH) was used to examine the images and perform measurements. Suprapapillary epidermal thickness (as measured from the top of the dermal papilla to the top of the granular layer) and stratum corneum thickness (as measured from the top of the granular layer to the top of the stratum corneum) were measured. For each specimen, five different sites were measured and the average was calculated.
Since long term retinoid therapy is associated with an increase in epidermal thickness, changes in epidermal thickness in each of the groups over the 12-week course of the retinoic acid therapy were also assessed. The mean values for the placebo/placebo+RA, placebo/MN+RA, and MN/MN+RA groups at the baseline were 37.9, 38.8, and 39.3 μm, respectively. […]

[7] = MN/MN+RA group (prior and concurrent MN)

For `CCCCCCCCCCCCCCOC(=O)c1cccnc1` [myristyl nicotinate], the “higher mean stratum corneum thickness compared to the mean values of the other groups” value (photodamaged skin [1]; MN/MN+RA group at baseline, after one month of 5% myristyl nicotinate, not significant at p<0.05) was “approximately 11%”, the “change in stratum corneum thickness” value (photodamaged skin [1]; concurrent use of 5% myristyl nicotinate and 0.025% retinoic acid, 12 weeks) was “did not result in a decrease in stratum corneum thickness” and the “increase in caspase 14 expression” value (caspase 14; placebo, retinoic acid and myristyl nicotinate for 3 months) was 24%. For the same compound, the “increase in stratum corneum thickness” value (photodamaged skin [2]) was “more than 50%”, the “grading of temple laxity vs placebo/placebo+RA” value (photodamaged skin [3]; MN/MN+RA group, p=0.02) was “statistically significant greater improvement” and the tactile roughness scores (photodamaged skin [3]; MN/MN+RA group, weeks 4 to 12) was “consistently showed greater improvement”. For the same compound, the “grading of temple laxity vs placebo/placebo+RA” value (photodamaged skin [3]; placebo/MN+RA group, not significant at p<0.05) was “trend for greater improvement”, the “change from baseline in mean rates of TEWL” value (photodamaged skin [4]; [7]) was “not statistically significant” and the “change from baseline in mean rates of TEWL” value (photodamaged skin [4]; placebo/MN+RA group (concurrent MN)) was “not statistically significant”. For the same compound, the “average increase in filaggrin expression” value (filaggrin; placebo, myristyl nicotinate and retinoic acid) was 13%, the incidence of tingling (photodamaged skin [5]; [7]) was “zero” and the “frequency of tightness/dryness, stinging, and burning” value (photodamaged skin [5]; concurrent use of myristyl nicotinate with retinoic acid therapy) was “decreased”. For the same compound, the “grading of erythema vs placebo” value (photodamaged skin [5]; myristyl nicotinate treated subjects on 0.025% retinoic acid, difference not statistically significant) was “consistently slightly higher”, the “frequency of tightness/dryness, stinging, and burning” value (photodamaged skin [5]; prior and concurrent myristyl nicotinate use with retinoic acid therapy) was “further reduced” and the mean epidermal thickness (photodamaged skin [6]; MN/MN+RA group at baseline, after one month of 5% myristyl nicotinate) was 39.3 μm. The “increase in epidermal thickness” value (photodamaged skin [6]; myristyl nicotinate concurrent with retinoic acid) was “approximately 3%” and the “increase in epidermal thickness” value (photodamaged skin [6]; myristyl nicotinate prior/concurrent with retinoic acid, p=0.0007 vs placebo/placebo+RA) was “approximately 10%”.
For `CC1=C(/C=C/C(C)=C/C=C/C(C)=C/C(=O)O)C(C)(C)CCC1` [retinoic acid, All-trans-retinoic acid], the “reduction in stratum corneum thickness” value (photodamaged skin [1]; placebo/placebo+RA group, 12 weeks of 0.025% retinoic acid therapy, p=0.006 vs. baseline) was “approximately 24%”, the “average increase in caspase 14 expression” value (caspase 14; placebo plus retinoic acid for 3 months) was 5% and the “increase in rates of TEWL” value (photodamaged skin [4]; placebo/placebo+RA group, 12 week period, p<0.0001) was “approximately 45%”. For the same compound, the “change in filaggrin expression” value (filaggrin; subjects not treated with myristyl nicotinate (placebo plus retinoic acid)) was “no change”, the frequency of tingling (photodamaged skin [5]; retinoic acid therapy 0.025%, frequency reported in the study) was 2% and the “decrease in mean epidermal thickness” value (photodamaged skin [6]; retinoic acid and placebo cream, 12 week study) was “approximately 5%”.
